Patent US6723753B2, “Substituted n-benzyl-n-phenyl aminoalcohol compounds useful for inhibiting cholesteryl ester transfer protein activity” (Pharmacia Corporation, priority 2002, dated 2004)

Target: T1, CETP (Homo sapiens, UniProt P11597)
T1 sequence (P11597 18-493): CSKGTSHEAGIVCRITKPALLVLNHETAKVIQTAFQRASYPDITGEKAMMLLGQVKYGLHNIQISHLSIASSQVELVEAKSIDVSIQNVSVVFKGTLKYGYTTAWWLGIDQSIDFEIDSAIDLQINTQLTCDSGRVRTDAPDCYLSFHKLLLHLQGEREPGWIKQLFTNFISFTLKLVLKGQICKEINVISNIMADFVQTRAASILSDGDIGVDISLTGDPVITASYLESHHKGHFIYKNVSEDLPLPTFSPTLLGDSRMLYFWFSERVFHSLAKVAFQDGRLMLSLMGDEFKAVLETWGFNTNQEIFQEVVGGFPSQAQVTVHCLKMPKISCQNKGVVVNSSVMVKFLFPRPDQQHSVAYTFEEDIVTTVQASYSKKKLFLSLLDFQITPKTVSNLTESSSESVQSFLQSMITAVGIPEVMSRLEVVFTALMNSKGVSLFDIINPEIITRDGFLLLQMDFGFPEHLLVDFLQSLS
Assay: Assay of CETP Inhibition using Purified Components (Reconstituted Buffer Assay)
Assay type: biochemical
Parameters: made in house; host or cells: CHO cells (serum-free conditioned medium)
Conditions: Inhibition of CETP activity in reconstituted buffer assay; transfer of [3H]CE from HDL to LDL; read-out: IC50
In short: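 Purified human recombinant CETP from transfected CHO cells was incubated with [^3H]CE-labeled HDL donor and LDL acceptor in Tris pH 7.4/NaCl/EDTA/1% BSA buffer for 2 h at 37 °C. LDL was then precipitated with dextran sulfate/MgCl2, filtered, and counted by liquid scintillation to give IC50 for CE transfer.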

Row | Compound | IC50
1 | OC(CN(Cc1cccc(OC(F)(F)C(F)F)c1)c1cccc(Cc2ccc(F)cc2)c1)C(F)(F)F (centres unmarked) [Example 519] | 2500 nM
2 | CC(C)(C)c1ccc(Cc2cccc(N(Cc3cccc(OC(F)(F)C(F)F)c3)CC(O)C(F)(F)F)c2)cc1 (centres unmarked) [Example 520] | 30000 nM
3 | Cc1cc(Cc2cccc(N(Cc3cccc(OC(F)(F)C(F)F)c3)CC(O)C(F)(F)F)c2)ccc1F (centres unmarked) [Example 521] | 430 nM
4 | Cc1cc(Cc2cccc(N(Cc3cccc(OC(F)(F)C(F)F)c3)CC(O)C(F)(F)F)c2)ccc1Cl (centres unmarked) [Example 522] | 1400 nM
5 | Cc1ccc(Cc2cccc(N(Cc3cccc(OC(F)(F)C(F)F)c3)CC(O)C(F)(F)F)c2)cc1C (centres unmarked) [Example 523] | 770 nM
6 | OC(CN(Cc1cccc(OC(F)(F)C(F)F)c1)c1cccc(Cc2ccc(F)c(Cl)c2)c1)C(F)(F)F (centres unmarked) [Example 524] | 1200 nM
7 | OC(CN(Cc1cccc(OC(F)(F)C(F)F)c1)c1cccc(Cc2cccc(Cl)c2)c1)C(F)(F)F (centres unmarked) [Example 525] | 760 nM
8 | CSc1ccc(Cc2cccc(N(Cc3cccc(OC(F)(F)C(F)F)c3)CC(O)C(F)(F)F)c2)cc1 (centres unmarked) [Example 526] | 1400 nM
9 | COc1cccc(Cc2cccc(N(Cc3cccc(OC(F)(F)C(F)F)c3)CC(O)C(F)(F)F)c2)c1 (centres unmarked) [Example 527] | 580 nM
10 | O=S(=O)(Nc1cccc(N(Cc2cccc(OC(F)(F)C(F)F)c2)CC(O)C(F)(F)F)c1)c1ccc(F)cc1 (centres unmarked) [Example 528, 4-fluoro-N-[3-[[[3-(1,1,2,2-tetrafluoroethoxy)phenyl]methyl](3,3,3-trifluoro-2-hydroxypropyl)amino]phenyl]benzenesulfonamide] | 43000 nM
11 | O=S(=O)(Nc1cccc(N(Cc2cccc(OC(F)(F)C(F)F)c2)CC(O)C(F)(F)F)c1)c1ccccc1 (centres unmarked) [Example 529] | 49000 nM
12 | Cc1cccc(S(=O)(=O)Nc2cccc(N(Cc3cccc(OC(F)(F)C(F)F)c3)CC(O)C(F)(F)F)c2)c1 (centres unmarked) [Example 530] | > 50000 nM
13 | O=[N+]([O-])c1cccc(S(=O)(=O)Nc2cccc(N(Cc3cccc(OC(F)(F)C(F)F)c3)CC(O)C(F)(F)F)c2)c1 (centres unmarked) [Example 532] | > 50000 nM
14 | O=S(=O)(Nc1cccc(N(Cc2cccc(OC(F)(F)C(F)F)c2)CC(O)C(F)(F)F)c1)c1ccc(F)c(Cl)c1 (centres unmarked) [Example 533] | > 50000 nM
15 | CC(C)S(=O)(=O)Nc1cccc(N(Cc2cccc(OC(F)(F)C(F)F)c2)CC(O)C(F)(F)F)c1 (centres unmarked) [Example 534] | > 50000 nM
16 | O=C(Nc1cccc(N(Cc2cccc(OC(F)(F)C(F)F)c2)CC(O)C(F)(F)F)c1)c1ccc(F)cc1 (centres unmarked) [Example 535, 4-fluoro-N-[3-[[[3-(1,1,2,2-tetrafluoroethoxy)phenyl]methyl](3,3,3-trifluoro-2-hydroxypropyl)amino]phenyl]benzamide] | > 50000 nM
17 | O=C(Nc1cccc(N(Cc2cccc(OC(F)(F)C(F)F)c2)CC(O)C(F)(F)F)c1)c1ccccc1 (centres unmarked) [Example 536] | > 50000 nM
18 | COc1cccc(C(=O)Nc2cccc(N(Cc3cccc(OC(F)(F)C(F)F)c3)CC(O)C(F)(F)F)c2)c1 (centres unmarked) [Example 537] | > 50000 nM
19 | CC(C)COC(=O)Nc1cccc(N(Cc2cccc(OC(F)(F)C(F)F)c2)CC(O)C(F)(F)F)c1 (centres unmarked) [Example 538] | > 50000 nM
20 | O=C(Nc1cccc(N(Cc2cccc(OC(F)(F)C(F)F)c2)CC(O)C(F)(F)F)c1)c1cccnc1 (centres unmarked) [Example 539] | > 50000 nM
21 | CC(C)C(=O)Nc1cccc(N(Cc2cccc(OC(F)(F)C(F)F)c2)CC(O)C(F)(F)F)c1 (centres unmarked) [Example 540] | > 50000 nM
22 | CC(C)CNc1cccc(N(Cc2cccc(OC(F)(F)C(F)F)c2)CC(O)C(F)(F)F)c1 (centres unmarked) [Example 541] | 970 nM
23 | OC(CN(Cc1cccc(OC(F)(F)C(F)F)c1)c1cccc(NCc2ccccc2)c1)C(F)(F)F (centres unmarked) [Example 542] | 2400 nM
24 | OC(CN(Cc1cccc(OC(F)(F)C(F)F)c1)c1cccc(NCc2ccc(F)cc2)c1)C(F)(F)F (centres unmarked) [Example 543] | 2700 nM
25 | OC(CN(Cc1cccc(OC(F)(F)C(F)F)c1)c1cccc(NCc2cccc(OC(F)(F)C(F)F)c2)c1)C(F)(F)F (centres unmarked) [Example 544] | 2300 nM
26 | O=C(Nc1ccc(F)cc1)Nc1cccc(N(Cc2cccc(OC(F)(F)C(F)F)c2)CC(O)C(F)(F)F)c1 (centres unmarked) [Example 545, N-(4-fluorophenyl)-N′-[3-[[[3-(1,1,2,2-tetrafluoroethoxy)phenyl]methyl]-(3,3,3-trifluoro-2-hydroxypropyl)amino]phenyl]urea] | > 50000 nM
27 | O=C(Nc1ccccc1)Nc1cccc(N(Cc2cccc(OC(F)(F)C(F)F)c2)CC(O)C(F)(F)F)c1 (centres unmarked) [Example 546] | > 50000 nM
28 | COc1cccc(NC(=O)Nc2cccc(N(Cc3cccc(OC(F)(F)C(F)F)c3)CC(O)C(F)(F)F)c2)c1 (centres unmarked) [Example 547] | > 50000 nM
29 | CC(C)NC(=O)Nc1cccc(N(Cc2cccc(OC(F)(F)C(F)F)c2)CC(O)C(F)(F)F)c1 (centres unmarked) [Example 549] | > 50000 nM
30 | CSc1ccc(-c2cccc(N(Cc3cccc(OC(F)(F)C(F)F)c3)CC(O)C(F)(F)F)c2)cc1 (centres unmarked) [Example 553] | 4800 nM

Results, then the compound that gave them:

Row | IC50 | Compound
31 | > 50000 nM | O=S(=O)(Nc1cccc(N(Cc2cccc(OC(F)(F)C(F)F)c2)CC(O)C(F)(F)F)c1)c1cccc(C(F)(F)F)c1 (centres unmarked) [Example 531]
32 | > 50000 nM | O=C(Nc1cccc(N(Cc2cccc(OC(F)(F)C(F)F)c2)CC(O)C(F)(F)F)c1)Nc1cccc(C(F)(F)F)c1 (centres unmarked) [Example 548]
33 | 10000 nM | OC(CN(Cc1cccc(OC(F)(F)C(F)F)c1)c1cccc(-c2cc(C(F)(F)F)cc(C(F)(F)F)c2)c1)C(F)(F)F (centres unmarked) [Example 551]
34 | 2500 nM | COc1c(Cl)cc(-c2cccc(N(Cc3cccc(OC(F)(F)C(F)F)c3)CC(O)C(F)(F)F)c2)cc1Cl (centres unmarked) [Example 555]
35 | 1800 nM | OC(CN(Cc1cccc(OC(F)(F)C(F)F)c1)c1cccc(-c2ccc(Cl)c(Cl)c2)c1)C(F)(F)F (centres unmarked) [Example 561]
36 | 2100 nM | COc1ccc(-c2cccc(N(Cc3cccc(OC(F)(F)C(F)F)c3)CC(O)C(F)(F)F)c2)cc1C (centres unmarked) [Example 562]
37 | > 50000 nM | Cc1cc(-c2cccc(N(Cc3cccc(OC(F)(F)C(F)F)c3)CC(O)C(F)(F)F)c2)cc(C)c1N(C)C (centres unmarked) [Example 563]
38 | 1500 nM | OC(CN(Cc1cccc(OC(F)(F)C(F)F)c1)c1cccc(-c2ccc(Cl)cc2)c1)C(F)(F)F (centres unmarked) [Example 565]
39 | 2700 nM | Cc1ccc(-c2cccc(N(Cc3cccc(OC(F)(F)C(F)F)c3)CC(O)C(F)(F)F)c2)cc1 (centres unmarked) [Example 566]
40 | 550 nM | OC(CN(Cc1cccc(OC(F)(F)C(F)F)c1)c1cccc(-c2ccc(Cl)cc2Cl)c1)C(F)(F)F (centres unmarked) [Example 567]
41 | 1400 nM | OC(CN(Cc1cccc(OC(F)(F)C(F)F)c1)c1cccc(-c2ccc(F)cc2)c1)C(F)(F)F (centres unmarked) [Example 568]
42 | 1200 nM | Cc1cc(-c2cccc(N(Cc3cccc(OC(F)(F)C(F)F)c3)CC(O)C(F)(F)F)c2)ccc1F (centres unmarked) [Example 569]
43 | 1800 nM | OC(CN(Cc1cccc(OC(F)(F)C(F)F)c1)c1cccc(-c2ccccc2C(F)(F)F)c1)C(F)(F)F (centres unmarked) [Example 570]
44 | 1600 nM | COc1cccc(-c2cccc(N(Cc3cccc(OC(F)(F)C(F)F)c3)CC(O)C(F)(F)F)c2)c1 (centres unmarked) [Example 571]
45 | 10000 nM | Nc1cccc(-c2cccc(N(Cc3cccc(OC(F)(F)C(F)F)c3)CC(O)C(F)(F)F)c2)c1 (centres unmarked) [Example 572]
46 | > 50000 nM | O=C(O)c1ccc(-c2cccc(N(Cc3cccc(OC(F)(F)C(F)F)c3)CC(O)C(F)(F)F)c2)cc1 (centres unmarked) [Example 573]
47 | 18000 nM | CC(C)(C)c1ccc(-c2cccc(N(Cc3cccc(OC(F)(F)C(F)F)c3)CC(O)C(F)(F)F)c2)cc1 (centres unmarked) [Example 574]
